# Counter-ions that a name gives are not always drawn.
# Legend:
# [1] = tested on: NCI-H292 lung cancer cells; assay: FDA drug screening, complete media vs cholesterol-free media with simvastatin (TABLE 2); type: cell-based, human; conditions: for Cholesterol-free media + simvastatin (0.04 μM) / Complete Media: NCI-H292 cells
# [2] = tested on: NCI-H292 lung cancer cells; assay: FDA drug screening, complete media vs cholesterol-free media without statin (TABLE 1); type: cell-based, human
# [3] = FDA drug library screen, cholesterol-free media with simvastatin 0.04 μM
# [4] = FDA drug library screen, complete media
# [5] = complete media vs cholesterol-free media + simvastatin (0.04 μM), >0 enhanced anti-cancer activity, about 0 neutral, <0 antagonist
# [6] = Complete minus Cholesterol-free, greater than 0 enhanced anti-cancer activity, about 0 neutral, below 0 antagonists
# [7] = NCI-H292 cells in cholesterol-free media without statin
# [8] = NCI-H292 cells in complete media
# [9] = drug in cholesterol-free media with simvastatin 0.04 μM
# [10] = cholesterol-free media with simvastatin 0.04 μM, cell growth value in FDA drug screen
# [11] = complete media, cell growth value in FDA drug screen
# [12] = complete media minus cholesterol-free media + simvastatin, >0 enhanced anti-cancer activity, about 0 neutral, <0 antagonist
# [13] = Complete minus Cholesterol-free, >0 enhanced anti-cancer activity, about 0 neutral, <0 antagonist
# [14] = NCI-H292 cells, cholesterol-free media without statin, FDA drug library screen
# [15] = NCI-H292 cells, complete media, FDA drug library screen
# [16] = NCI-H292 cells, cholesterol-free media without statin
# [17] = complete vs cholesterol-free media, greater than 0 enhanced anti-cancer activity, about 0 neutral, below 0 antagonists
# [18] = FDA library drug in cholesterol-free media with simvastatin 0.04 μM
# [19] = FDA library drug in complete media
compound,measurement,setting,value
Oc1ccc(OCc2ccccc2)cc1 [Monobenzone],Cholesterol-free media + simvastatin (0.04 μM),[1]; [3],1.226
same,Complete Media,[1]; [4],1.137
same,Difference,[1]; [5],−0.09
same,Difference,[2]; [6],−0.87
same,Cholesterol-free,[2]; [7],1.95
same,Complete,[2]; [8],1.077
C[C@H]1C(=O)O[C@@H]2CCN3CC=C(COC(=O)[C@](C)(O)[C@]1(C)O)[C@H]23 [Monocrotaline],Cholesterol-free media + simvastatin (0.04 μM),[1]; [9],1.209
same,Complete Media,[1]; drug in complete media,1.046
same,Difference,"[1]; complete media vs cholesterol-free media + simvastatin (0.04 μM), […]",−0.16
same,Difference,"[2]; Complete minus Cholesterol-free, […]",−0.18
same,Cholesterol-free,"[2]; NCI-H292 cells, FDA drug library screen, cholesterol-free media without statin",1.01
same,Complete,"[2]; NCI-H292 cells, FDA drug library screen, complete media",0.8289
CC(C)(O)c1ccccc1CC[C@@H](SCC1(CC(=O)O)CC1)c1cccc(/C=C/c2ccc3ccc(Cl)cc3n2)c1 [Montelukast (sodium)],Cholesterol-free media + simvastatin (0.04 μM),[1]; [10],0.8464
same,Complete Media,[1]; [11],0.9746
same,Difference,[1]; [12],0.13
same,Difference,[2]; [6],−0.51
same,Cholesterol-free,[2]; [7],1.599
same,Complete,[2]; [8],1.09
Cc1ncc([N+](=O)[O-])n1CC(O)CN1CCOCC1 (stereo not drawn) [Morinidazole (R enantiomer)],Cholesterol-free media + simvastatin (0.04 μM),[1]; [3],1.178
same,Complete Media,[1]; [4],1.022
same,Difference,[1]; [5],−0.16
same,Difference,[2]; [13],−0.04
same,Cholesterol-free,[2]; [14],1.104
same,Complete,[2]; [15],1.064
Cc1ncc([N+](=O)[O-])n1CC(O)CN1CCOCC1 (stereo not drawn) [Morinidazole],Cholesterol-free media + simvastatin (0.04 μM),[1]; [3],1.535
same,Complete Media,[1]; [4],1.676
same,Difference,[1]; [12],0.14
same,Cholesterol-free,[2]; [16],1.15
same,Complete,"[2]; NCI-H292 cells, complete media",0.8164
same,Difference,[2]; [17],−0.33
N=C(N)/N=C(\N)N1CCOCC1 [Moroxydine (hydrochloride)],Cholesterol-free media + simvastatin (0.04 μM),[1]; [9],1.02
same,Complete Media,[1]; drug in complete media,0.8563
same,Difference,[1]; [5],−0.16
same,Cholesterol-free,[2]; [16],1.172
same,Complete,"[2]; NCI-H292 cells, complete media",0.8572
same,Difference,[2]; [17],−0.32
CO[C@@]1(NC(=O)C(C(=O)O)c2ccc(O)cc2)C(=O)N2C(C(=O)O)=C(CSc3nnnn3C)CO[C@@H]21 (stereo partly drawn) [Moxalactam (sodium salt)],Cholesterol-free media + simvastatin (0.04 μM),[1]; [18],1.994
same,Complete Media,[1]; [19],1.097
same,Difference,[1]; [5],−0.90
same,Difference,[2]; [6],−0.79
same,Cholesterol-free,[2]; [7],1.849
same,Complete,[2]; [8],1.058
CO/N=C1\C[C@]2(C[C@@H]3C[C@@H](C/C=C(\C)C[C@@H](C)/C=C/C=C4\CO[C@@H]5[C@H](O)C(C)=C[C@@H](C(=O)O3)[C@]45O)O2)O[C@H](/C(C)=C/C(C)C)[C@H]1C [Moxidectin],Cholesterol-free media + simvastatin (0.04 μM),[1]; [9],0.8625
same,Complete Media,[1]; drug in complete media,0.6882
same,Difference,[1]; [5],−0.17
same,Difference,[2]; [13],−0.21
same,Cholesterol-free,[2]; [16],0.4893
same,Complete,"[2]; NCI-H292 cells, complete media",0.2816
CC(=O)Oc1cc(C(C)C)c(OCCN(C)C)cc1C [Moxisylyte (hydrochloride)],Cholesterol-free media + simvastatin (0.04 μM),[1]; [9],1.237
same,Complete Media,[1]; drug in complete media,1.071
same,Difference,[1]; [5],−0.17
same,Difference,[2]; [13],0.07
same,Cholesterol-free,[2]; [14],1.028
same,Complete,[2]; [15],1.096
COc1nc(C)nc(Cl)c1N=C1NCCN1 [Moxonidine],Cholesterol-free media + simvastatin (0.04 μM),[1]; [10],0.8373
same,Complete Media,[1]; [11],0.9283
same,Difference,[1]; [12],0.09
same,Difference,[2]; [13],0.05
same,Cholesterol-free,[2]; [14],0.9137
same,Complete,[2]; [15],0.9657
Cc1ccccc1C(=O)Nc1ccc(C(=O)N2CCCC(N(C)C)c3ccccc32)cc1 (stereo not drawn) [Mozavaptan (hydrochloride)],Cholesterol-free media + simvastatin (0.04 μM),[1]; [10],1.17
same,Complete Media,[1]; [11],1.196
same,Difference,[1]; [12],0.03
same,Difference,[2]; [6],−0.56
same,Cholesterol-free,[2]; [7],1.248
same,Complete,[2]; [8],0.6877
Cc1ccccc1C(=O)Nc1ccc(C(=O)N2CCCC(N(C)C)c3ccccc32)cc1 (stereo not drawn) [Mozavaptan],Cholesterol-free media + simvastatin (0.04 μM),[1]; [18],1.121
same,Complete Media,[1]; [19],0.8375
same,Difference,[1]; [5],−0.28
same,Difference,[2]; [13],−0.20
same,Cholesterol-free,[2]; [16],0.8282
same,Complete,"[2]; NCI-H292 cells, complete media",0.6332
C/C(=C\C(=O)OCCCCCCCCC(=O)O)C[C@@H]1OC[C@H](C[C@@H]2O[C@H]2[C@@H](C)[C@H](C)O)[C@@H](O)[C@H]1O [Mupirocin],Cholesterol-free media + simvastatin (0.04 μM),[1]; [18],1.454
same,Complete Media,[1]; [19],1.069
same,Difference,[1]; [5],−0.38
same,Cholesterol-free,[2]; [14],0.7089
same,Complete,[2]; [15],1.063
same,Difference,"[2]; complete vs cholesterol-free media, >0 enhanced anti-cancer activity, about 0 neutral, <0 antagonist",0.35
COc1c(C)c2c(c(O)c1C/C=C(\C)CCC(=O)OCCN1CCOCC1)C(=O)OC2 [Mycophenolate Mofetil],Cholesterol-free media + simvastatin (0.04 μM),[1]; [3],0.7059
same,Complete Media,[1]; [4],0.6206
same,Difference,[1]; [5],−0.09
same,Difference,[2]; [13],−0.01
same,Cholesterol-free,[2]; [14],0.3372
same,Complete,[2]; [15],0.3232
